In DBAASP one finds MIC data, which are given here for five compounds.

Each structure is given as a SMILES string. Values after ≈ are worked out from the molar mass of the structure shown. Values joined by “and” are separate entries in the source; they are usually repeats but may differ in a detail not shown here. Equal entries are not always repeated.

Some test systems named below: Escherichia coli BW25113; Candida albicans; Escherichia coli UB1005; Pseudomonas aeruginosa; Pseudomonas fluorescens; Staphylococcus aureus; Aeromonas hydrophila; Escherichia coli MG1655; Vibrio harveyi; Bacillus subtilis C971; Escherichia coli DC2; Candida glabrata; Candida tropicalis; Cryptococcus neoformans.
What all share (assay): ≥ marks a high value that may be exact or a test limit, other limits are often not marked, values filed in µg/mL are converted to µM
The test system of assay [1] is Acinetobacter baumannii ATCC 19606.
Assay [2] concerns Escherichia coli BW25113 ΔsbmA.
Assay [3] has as its system Klebsiella pneumoniae ATCC 700603.
Assay [4] has as its system Pseudomonas aeruginosa ATCC 27853.
Assay [5] concerns Staphylococcus aureus ATCC 25923.
Assay [6] concerns Achromobacter xylosoxidans.
The subject of assay [7] is Pseudomonas aeruginosa ATCC 9027.
The subject of assay [8] is Pseudomonas aeruginosa M1251.
The subject of assay [9] is Pseudomonas aeruginosa M1426.
Assay [10] concerns Pseudomonas aeruginosa M76.
For assay [11], the system named is Pseudomonas aeruginosa M917.
Assay [12] has as its system Pseudomonas aeruginosa R70.
The subject of assay [13] is Salmonella enterica serovar Typhimurium.
The test system of assay [14] is Staphylococcus aureus ATCC 6538.
Assay [15] relates to Stenotrophomonas maltophilia.
Assay [16] deals with Corynebacterium xerosis C875.
The test system of assay [17] is Enterococcus faecalis C625.
Assay [18] deals with Escherichia coli ATCC 25922.
In assay [19] the test system is Pseudomonas aeruginosa H187.
Assay [20] deals with Pseudomonas aeruginosa H188.
Assay [21] relates to Salmonella typhimurium C587.
Assay [22] concerns Salmonella typhimurium C610.
Assay [23] relates to Staphylococcus aureus SAP 0017.
The test system of assay [24] is Staphylococcus epidermidis ATCC 12228.
Assay [25] has as its system Staphylococcus epidermidis C621.
Assay [26] has as its system Streptococcus pneumoniae ATCC 49619.
Assay [27] concerns Candida albicans ATCC 200955.
Assay [28] has as its system Candida albicans ATCC 36232.
Assay [29] concerns Candida krusei ATCC 200917.
The subject of assay [30] is Candida krusei ATCC 90878.
Assay [31] concerns Escherichia coli ATCC 2592.
The subject of assay [32] is Micrococcus luteus ATCC 9341.

On to `CC[C@H](C)[C@H](NC(=O)[C@H](CCCN=C(N)N)NC(=O)[C@@H](N)Cc1c[nH]c2ccccc12)C(=O)N[C@@H](CCCN=C(N)N)C(=O)N[C@@H](CCCN=C(N)N)C(=O)N[C@@H](CCCN=C(N)N)C(=O)N1CCC[C@H]1C(=O)N1CCC[C@H]1C(=O)N[C@@H](CCCN=C(N)N)C(=O)N[C@@H](CC(C)C)C(=O)N1CCC[C@H]1C(=O)N[C@@H](CCCN=C(N)N)C(=O)N1CCC[C@H]1C(=O)N[C@@H](CCCN=C(N)N)C(=O)N[C@@H](Cc1c[nH]c2ccccc12)C(=O)N[C@@H](CCCN=C(N)N)C(=O)O` [WRIRRRPPRLPRPRWR], for which the minimal inhibitory concentration (MIC) in assay [1] was found to be 32 µM (≈ 72.2 µg/mL); in [2], 3 µM (≈ 6.76 µg/mL); against Escherichia coli BW25113 it was 2 µM (≈ 4.51 µg/mL); in [3], 4 µM (≈ 9.02 µg/mL); in [4], 64 µM (≈ 144 µg/mL); in assay [5], 32 µM (≈ 72.2 µg/mL).

On to `CC(C)C[C@H](NC(=O)[C@H](CC(C)C)NC(=O)[C@H](CCCCN)NC(=O)[C@H](CCCCN)NC(=O)[C@H](C)NC(=O)[C@H](CC(C)C)NC(=O)[C@H](CCCCN)NC(=O)[C@H](C)NC(=O)[C@H](CC(C)C)NC(=O)[C@H](CC(C)C)NC(=O)[C@H](CCCCN)NC(=O)[C@H](C)NC(=O)[C@@H](N)Cc1ccccc1)C(N)=O` [FAKLLAKLAKKLL], for which the minimum inhibitory concentration (MIC) in assay [6] was ≥ 43.9 µM; against Candida albicans it was 5.49 µM (≈ 7.99 µg/mL); in the assay with Escherichia coli UB1005 it was 2.75 µM (≈ 4 µg/mL); in assay [7], 68.6 µM (≈ 99.9 µg/mL); in assay [8], 2.75 µM (≈ 4 µg/mL); in assay [9] it was 5.49 µM (≈ 7.99 µg/mL). Moreover, the minimum inhibitory concentration (MIC) is 2.75 µM (≈ 4 µg/mL) in assay [10]; 11 µM (≈ 16 µg/mL) in assay [11]; 2.75 µM (≈ 4 µg/mL) in assay [12]; 5.49 µM (≈ 7.99 µg/mL) in the assay with Pseudomonas aeruginosa; 5.49 µM (≈ 7.99 µg/mL) in the assay on Pseudomonas fluorescens; 2.75 µM (≈ 4 µg/mL) in assay [13]. Besides, the figures for the minimum inhibitory concentration (MIC) (in assay [14]; against Staphylococcus aureus; in assay [15]) were 3.43 µM (≈ 5 µg/mL), 2.75 µM (≈ 4 µg/mL) and 1.37 µM (≈ 2 µg/mL), respectively.

Regarding `CC[C@H](C)[C@H](NC(=O)[C@H](C)NC(=O)[C@H](CCCN=C(N)N)NC(=O)[C@H](Cc1cnc[nH]1)NC(=O)[C@@H](NC(=O)[C@H](C)NC(=O)[C@H](CCCN=C(N)N)NC(=O)[C@@H](NC(=O)CNC(=O)[C@H](Cc1cnc[nH]1)NC(=O)[C@H](CO)NC(=O)[C@@H](NC(=O)[C@H](Cc1c[nH]c2ccccc12)NC(=O)CNC(=O)[C@@H](NC(=O)[C@@H](NC(=O)[C@H](Cc1cnc[nH]1)NC(=O)[C@H](C)NC(=O)[C@@H](NC(=O)[C@@H](N)Cc1ccccc1)[C@@H](C)CC)[C@@H](C)CC)[C@@H](C)CC)[C@@H](C)CC)C(C)C)[C@@H](C)CC)C(=O)N[C@@H](Cc1cnc[nH]1)C(N)=O` [FIAHIIGWISHGVRAIHRAIH], the MIC is ≥ 128 µM in the assay on Aeromonas hydrophila; 16 µM and ≥ 32 µM against Escherichia coli MG1655; ≥ 32 µM against Vibrio harveyi.

Turning to `CC[C@H](C)[C@H](NC(=O)[C@H](C)NC(=O)[C@H](CCCCN)NC(=O)[C@H](CC(C)C)NC(=O)[C@H](C)NC(=O)[C@@H](NC(=O)[C@H](Cc1cnc[nH]1)NC(=O)[C@H](CC(C)C)NC(=O)[C@@H](NC(=O)[C@@H](NC(=O)[C@H](CCCCN)NC(=O)[C@H](C)NC(=O)[C@H](C)NC(=O)[C@H](CO)NC(=O)[C@H](CCCCN)NC(=O)[C@H](Cc1ccccc1)NC(=O)[C@@H](NC(=O)[C@H](CCCCN)NC(=O)[C@H](CC(C)C)NC(=O)[C@H](Cc1ccccc1)NC(=O)[C@H](CO)NC(=O)[C@H](CCCCN)NC(=O)[C@H](Cc1c[nH]c2ccccc12)NC(=O)[C@H](CCCCN)NC(C)=O)[C@@H](C)O)[C@@H](C)O)C(C)C)[C@@H](C)O)C(=O)N[C@@H](CO)C(=O)N[C@@H](CO)C(N)=O` [KWKSFLKTFKSAAKTVLHTALKAISS], the minimal inhibitory concentration (MIC) with Bacillus subtilis C971 is 0.692 µM (≈ 2.03 µg/mL); in [16], 0.692 µM (≈ 2.03 µg/mL); in assay [17], 5.53 µM (≈ 16.2 µg/mL); in [18], 2.83 µM (≈ 8.3 µg/mL); with Escherichia coli DC2, 0.864 µM (≈ 2.54 µg/mL); in the assay on Escherichia coli UB1005, 0.864 µM (≈ 2.54 µg/mL). In addition, the minimum inhibitory concentration (MIC) in assay [3] came to 4 µM (≈ 11.7 µg/mL); in assay [4], 8 µM (≈ 23.5 µg/mL); in assay [19] it was 1.73 µM (≈ 5.07 µg/mL); in assay [20] it was 2.21 µM (≈ 6.49 µg/mL); in assay [21], 2.21 µM (≈ 6.49 µg/mL); in [22], 0.864 µM (≈ 2.54 µg/mL). Further, the MIC in assay [5] was 2.77 µM and 5.66 µM; in [23], 1.73 µM (≈ 5.07 µg/mL); in assay [24], 2.83 µM (≈ 8.3 µg/mL); in assay [25], 1.11 µM (≈ 3.25 µg/mL); in [26], 2 µM (≈ 5.87 µg/mL).

On to `CC(C)[C@H](NC(=O)[C@H](CCCCN)NC(=O)[C@H](Cc1ccccc1)NC(=O)[C@@H](NC(=O)[C@@H](NC(=O)[C@H](CCCCN)NC(=O)[C@@H](N)CCCCN)C(C)C)C(C)C)C(=O)N[C@@H](CCCCN)C(=O)N[C@@H](Cc1ccccc1)C(=O)N[C@@H](CCCCN)C(=O)N[C@@H](CCCCN)C(N)=O` [KKVVFKVKFKK], for which the minimum inhibitory concentration (MIC) in assay [27] is 3.2 µM (≈ 4.41 µg/mL); in [28], 2.27 µM and 3.21 µM and 4.53 µM; with Candida albicans, 5.8 µM (≈ 7.99 µg/mL); against Candida glabrata, 23.2 µM (≈ 32 µg/mL); in assay [29], 1.6 µM (≈ 2.2 µg/mL); in assay [30] it was 1.6 µM (≈ 2.2 µg/mL). The minimum inhibitory concentration (MIC) in the assay with Candida tropicalis was determined as 2.9 µM (≈ 4 µg/mL); in the assay on Cryptococcus neoformans it was 2.9 µM (≈ 4 µg/mL); in assay [31], 7.98 µM (≈ 11 µg/mL); in assay [32], 2.27 µM (≈ 3.13 µg/mL); in assay [7] it was 4.35 µM (≈ 6 µg/mL); in [14], 2.27 µM (≈ 3.13 µg/mL).
